In article PMC12114169, “Synthesis, Characterisation, Biological Evaluation and In Silico Studies of Quinoline–1,2,3-Triazole–Anilines as Potential Antitubercular and Anti-HIV Agents” (Molecules, 2025):
≈ marks a conversion by molar mass, not a printed value. Where “and” joins values, the source holds several entries; their conditions need not be identical. Identical values can stand only once. Like-named read-outs stand apart in the source and are kept apart here.

Experiments:
[1] = tested on: Mtb H37Rv (ATCC 27294) strain; test: Antimycobacterial micro broth dilution (resazurin) assay; assay type: cell-based, Mycobacterium tuberculosis; conditions: 7 days, read-out: Anti-Mtb H37Rv MIC90
[2] = MTT cytotoxicity evaluation; conditions: human, Cytotoxicity CC50 TZM-bl Cell Line, MTT assay
[3] = tested on: HIV-1 subtype B (NL4.3 virus); test: Luciferase-based antiviral assay in TZM-bl cells; conditions: for SI (CC50/IC50): selectivity index, TZM-bl CC50 / HIV-1 IC50
Mtb = tested on: Mtb; set-up: method as in PMID 21489660; conditions: antitubercular activity; cited from earlier work
[4] = target: HIV reverse transcriptase; set-up: method as in PMID 30370848; conditions: cited from earlier work
TZM-bl cell line = test: MTT cytotoxicity evaluation; conditions: read-out: Cytotoxicity CC50 TZM-bl Cell Line; MTT assay
[5] = Mycobacterium tuberculosis, 168 h
[6] = Human immunodeficiency virus 1, TZM-bl, 48 h, read-out: Anti-HIV HIV-1 Subtype B IC50, NL4.3 virus in TZM-bl cells, 48 h, luciferase
[7] = read-out: Anti-HIV HIV-1 Subtype B IC50, NL4.3 virus in TZM-bl cells, 48 h, luciferase

**Q.** What does the source list for `Fc1ccc(NCc2cn(-c3ccnc4cc(Cl)ccc34)nn2)cc1` [Compound 11d, [1-(7-Chloro-4-quinolinyl)-1H-1,2,3-triazole-4-methyl]-4-flouroaniline]?
**A.** MIC90 [1, 5]: 177 µM (≈ 62.5 µg/mL); CC50 [2]: 1320 µM; Anti-HIV HIV-1 Subtype B IC50 ([3]; NL4.3 virus in TZM-bl cells, 48 h, luciferase): DNC *

**Q.** With `[N-]=[N+]=Nc1ccnc2cc(Cl)ccc12` [Compound 7, 4-azido-7-chloroquinoline] as the compound, how does the MIC90 [1, 5] read?
**A.** 19.1 µM (≈ 3.91 µg/mL)

**Q.** For `COc1ccc2nccc(-n3cc(CNC(C)=O)nn3)c2c1` [Compound 1], which MIC (Mtb) is on record?
**A.** 0.625 µg/mL (≈ 2.1 µM)

**Q.** Which MIC90 [1] does the source give for `Fc1cccc(NCc2cn(-c3ccnc4cc(Cl)ccc34)nn2)c1` [Compound 11h, [1-(7-Chloro-4-quinolinyl)-1H-1,2,3-triazole-4-methyl]-3-flouroaniline] here?
**A.** 88.72 µM (≈ 31.4 µg/mL)

**Q.** And the MIC90 [1, 5]?
**A.** 88 µM (≈ 31.1 µg/mL)

**Q.** And the CC50 [2]?
**A.** 25.5 µM

**Q.** And the IC50 [3, 6]?
**A.** 0.0103 µM

**Q.** What about the IC50 [3, 7] of the same compound?
**A.** 0.0103 µM

**Q.** And the “SI (CC50/IC50)” value [3]?
**A.** 2472.87

**Q.** For `C#CCNc1ccccc1` [Compound 10a, N-2-propyl-1-yl-benzanamine], which MIC90 [1, 5] is on record?
**A.** 3810 µM (≈ 500 µg/mL)

**Q.** For `CC[C@@H](CO)NCCN[C@@H](CC)CO` [Ethambutol, reference compound], which MIC90 [1, 5] is on record?
**A.** 9.68 µM (≈ 1.98 µg/mL)

**Q.** With `Clc1ccc2c(-n3cc(CNc4ccc(Br)cc4)nn3)ccnc2c1` [Compound 11b, [1-(7-Chloro-4-quinolinyl)-1H-1,2,3-triazole-4-methyl]-4-bromoaniline] as the compound, how does the MIC90 [1, 5] read?
**A.** 1210 µM (≈ 502 µg/mL)

**Q.** And the CC50 [2]?
**A.** 0.248 µM

**Q.** And the IC50 [3, 6]?
**A.** 124 µM

**Q.** And the “SI (CC50/IC50)” value [3]?
**A.** 1.994 × 10^−3

**Q.** With `COc1ccc(S(=O)(=O)NCc2cn(-c3ccnc4ccc(OC)cc34)nn2)cc1` [Compound 2] as the compound, how does the MIC (Mtb) read?
**A.** 0.625 µg/mL (≈ 1.47 µM)

**Q.** Which MIC90 [1, 5] does the source give for `Clc1ccc2c(-n3cc(CNc4ccc(I)cc4)nn3)ccnc2c1` [Compound 11c, [1-(7-Chloro-4-quinolinyl)-1H-1,2,3-triazole-4-methyl]-4-iodoaniline] here?
**A.** 1080 µM (≈ 501 µg/mL)

**Q.** And the CC50 [2]?
**A.** 157 µM

**Q.** What about the IC50 [3, 6] of the same compound?
**A.** 23.2 µM

**Q.** And the “SI (CC50/IC50)” value [3]?
**A.** 6.76

**Q.** Which MIC90 [1, 5] does the source give for `COc1ccc(NCc2cn(-c3ccnc4cc(Cl)ccc34)nn2)cc1` [Compound 11j, [1-(7-Chloro-4-quinolinyl)-1H-1,2,3-triazole-4-methyl]-4-methoxyaniline] here?
**A.** 1370 µM (≈ 501 µg/mL)

**Q.** And the CC50 [2]?
**A.** 4 µM

**Q.** What about the IC50 [3, 6] of the same compound?
**A.** 180 µM

**Q.** What about the “SI (CC50/IC50)” value [3] of the same compound?
**A.** 0.02

**Q.** Which IC50 [4] does the source give for `O=C1O[C@](C#CC2CC2)(C(F)(F)F)c2ccccc2N1Cc1cn(-c2ccnc3cc(Cl)ccc23)nn1` [Compound 5] here?
**A.** 0.8 µM

**Q.** Which MIC90 [1, 5] does the source give for `Clc1cccc(NCc2cn(-c3ccnc4cc(Cl)ccc34)nn2)c1` [Compound 11e, [1-(7-Chloro-4-quinolinyl)-1H-1,2,3-triazole-4-methyl]-3-chloroaniline] here?
**A.** 169 µM (≈ 62.5 µg/mL)

**Q.** What about the CC50 [2] of the same compound?
**A.** 835 µM

**Q.** What about the IC50 [3, 6] of the same compound?
**A.** 714 µM

**Q.** And the “SI (CC50/IC50)” value [3]?
**A.** 1.17

**Q.** For `O=[N+]([O-])c1cccc(NCc2cn(-c3ccnc4cc(Cl)ccc34)nn2)c1` [Compound 11i, [1-(7-Chloro-4-quinolinyl)-1H-1,2,3-triazole-4-methyl]-3-nitroaniline], which CC50 [2] is on record?
**A.** 0.00901 µM

**Q.** What about the IC50 [3, 6] of the same compound?
**A.** 0.17 µM

**Q.** And the IC50 [3, 7]?
**A.** 0.167 µM

**Q.** And the “SI (CC50/IC50)” value [3]?
**A.** 0.05

**Q.** For `COc1ccc2nccc(-n3cc(CN4CCN(C(C)=O)CC4)nn3)c2c1` [Compound 3], which MIC (Mtb) is on record?
**A.** 0.625 µg/mL (≈ 1.71 µM)

**Q.** Which results are given for `Clc1ccc2c(-n3cc(CNc4ccccc4)nn3)ccnc2c1` [Compound 11a]?
**A.** MIC90 [1, 5]: 187 µM (≈ 62.6 µg/mL); CC50 [2]: > 100 µM; CC50 (TZM-bl cell line): 177 µM; IC50 [3, 6]: 3.01 µM; SI (CC50/IC50) [3]: 58.75

**Q.** What does the source list for `FC(F)(F)c1ccccc1NCc1cn(-c2ccnc3cc(Cl)ccc23)nn1` [Compound 11g, [1-(7-Chloro-4-quinolinyl)-1H-1,2,3-triazole-4-methyl]-2-triflouromethylaniline]?
**A.** MIC90 [1, 5]: 155 µM (≈ 62.6 µg/mL); IC50 [3, 6]: 0.388 µM; IC50 [3, 7]: 0.388 µM; SI (CC50/IC50) [3]: 11,367.49

**Q.** For `Cc1cn([C@H]2C[C@H](N=[N+]=[N-])[C@@H](CO)O2)c(=O)[nH]c1=O` [AZT, azidothymidine, reference compound], which CC50 [2] is on record?
**A.** 1120 µM

**Q.** What about the IC50 [3, 6] of the same compound?
**A.** 0.0909 µM

**Q.** And the “SI (CC50/IC50)” value [3]?
**A.** 12,349 and 12,349.59
